Experiments:
Mosquito larvae = experiment: Mosquito larval mortality bioassay; type: in vivo; conditions: mosquito larval mortality followed for three days in microtiter plates; compound dissolved in dimethylsulfoxide; Brewer's yeast
Procedure: Mosquito larval mortality was followed for three days in microtiter plates containing 160 μL sterile water, 1-4 μL of the test compound dissolved in dimethylsulfoxide, and 10 μL of 2% Brewer's yeast. Controls were run under the same conditions without the test compounds. Larval mortality in the controls was 3% for 1-3 μL dimethylsulfoxide, and up to 20% for 4 μL dimethylsulfoxide.

Ornithodoros parkeri = experiment: Repellent assay for ticks; type: in vivo; conditions: ten ticks; for # ticks on acetone: control paper opposite the compound paper; for # ticks on compound: test paper saturated with 60 uL of 15 mg/ml test solution
Procedure: A repellent assay for ticks is carried out as follows: (1) Prepare 15 mg/ml test solution of test compound in 100% acetone in individual 500 uL bullet tubes. Prepare control solution (1 uL olive oil plus 100 uL 100 acetone). (2) prepare half circle test papers (radious =2.25 cm) from Whatman filter paper (# 2 qualitative). (3) Saturate test papers with 60 uL of 100% acetone, control, or test solution. Test papers are in individual sterile petri dishes during this process. (4) Allow test papers to air dry at room temperature for one hour. (5) Select and place ten ticks into separate sterile glass petri dishes. Allow ticks to acclimate to covered dishes for one hour. (6) Transfer one test paper treated with a test solution and one test paper treated with the control solution to each of separate sterile petri dish bottoms. On control included two test papers treated with acetone. A second control included two test papers treated with the control solution. (7) Place ten ticks in between the two test papers. Place the test arenas in a dark room at room temperature. (8) Record the location of ticks 15 minutes, 1 hour and 2 hours after being placed in the test arenas.

Compound	Activity (LD50) (Mosquito larvae) [mM]	# ticks on acetone (Ornithodoros parkeri; 15 minutes)	# ticks on acetone (Ornithodoros parkeri; 1 hour)	# ticks on acetone (Ornithodoros parkeri; 2 hours)	other results
O=C(O)CCCCCCc1ccccc1 [7-Phenylheptanoic acid]	0.19 ± 0.02				
O=C(O)CC/C=C/CCC1CCCCC1 [Compound 172, E-7-(Cyclohexyl)hept-4-enoic Acid]		8	10	10	# ticks on compound (Ornithodoros parkeri; 15 minutes): 2
CCOC(=O)CC/C=C/CCC1CCCCC1 [Compound 218, Ethyl E-7-(Cyclohexyl)hept-4-enoate]		10	10	10	
CCOC(=O)CC/C=C/CCc1ccc(-c2ccccc2)cc1 [Compound 221, Ethyl E-7-((4-phenyl)phenyl)hept-4-enoate]		5	4	8	# ticks on compound (Ornithodoros parkeri; 15 minutes): 5; # ticks on compound (Ornithodoros parkeri; 1 hour): 4; # ticks on compound (Ornithodoros parkeri; 2 hours): 2
O=C(O)CC/C=C/CCc1ccc(O)cc1 [E-7-(4-Hydroxyphenyl)hept-4-enoic acid, E-7-(4-hydroxyphenyl)hept-4-enoic acid]	0.59 ± 0.03				
COc1ccc(CC/C=C/CCC(=O)O)cc1 [E-7-(4-Methoxyphenyl)hept-4-enoic acid]	1.28				
O=C(O)CC/C=C/CCc1ccccc1 [E-7-Phenylhept-4-enoic acid]	<0.08				

From patent US6660770B2, “Pesticidal activity of functionalized alkenes” (North Carolina State University, priority 1999, dated 2003)
